For orientation: pIC50 means −log10 of the IC50, conventionally taken in molar units. The low end stands for a high IC50, the high end for a low IC50.

SMILES strings stand for the structures. pIC50: −log10 of the molar value.

human factor Xa (FXa), sequence (P00742 235-488 limits assumed): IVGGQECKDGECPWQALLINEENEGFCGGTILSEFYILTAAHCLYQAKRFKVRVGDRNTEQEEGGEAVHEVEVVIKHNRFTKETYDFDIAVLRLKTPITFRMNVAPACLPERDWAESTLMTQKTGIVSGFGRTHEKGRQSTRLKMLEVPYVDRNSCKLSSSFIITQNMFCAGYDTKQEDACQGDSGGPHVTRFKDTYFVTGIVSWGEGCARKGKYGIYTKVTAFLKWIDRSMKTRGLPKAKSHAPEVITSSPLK
human factor Xa (FXa), sequence (P00742 41-179 partner limits assumed): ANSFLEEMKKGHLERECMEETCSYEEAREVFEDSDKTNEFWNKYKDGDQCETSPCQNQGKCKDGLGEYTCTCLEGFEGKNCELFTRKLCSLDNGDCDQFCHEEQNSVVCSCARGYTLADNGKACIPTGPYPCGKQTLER

One assay addresses human factor Xa (FXa) (Homo sapiens, UniProt P00742). In words: Measurement of factor Xa inhibition (chromogenic substrate). It counts as biochemical.
Conditions: not given
The procedure: a.1) Measurement of Factor Xa Inhibition
In this case, factor Xa eliminates p-nitroaniline from the chromogenic substrate.
The test substances were dissolved in various concentrations in DMSO and incubated with human FXa (0.5 nmol/l dissolved in 50 mmol/l tris buffer [C,C,C-tris(hydroxymethyl)-aminomethane], 150 mmol/l NaCl, 0.1% BSA (bovine serum albumine), pH=8,3) at 25° C. for 10 minutes. Pure DMSO serves as control.
On to `NC1CCN(c2ccc(N3CC(CNC(=O)c4ccc(Cl)s4)OC3=O)cc2F)C1` (stereo not drawn) [Example 126], for which the pIC50 was 7.89.
Still for that read-out and setting: the same measure for `O=C(NC[C@H]1CN(c2ccc(N3CCOCC3=O)c(F)c2)C(=O)O1)c1ccc(Br)s1` [Example 127]: 9.15; for `O=C(NC[C@H]1CN(c2ccc(N3CCCC3=O)c(F)c2)C(=O)O1)c1ccc(Br)s1` [Example 128]: 8.70.
Still for that read-out and setting: the same measure for `O=C(NC[C@H]1CN(c2ccc(N3CCCCC3=O)cc2)C(=O)O1)c1ccc(Br)s1` [Example 129]: 9.00; for `O=C(NC[C@H]1CN(c2ccc(N3CCCC3=O)c(F)c2)C(=O)O1)c1ccc(Cl)s1` [Example 130]: 8.48; for `O=C(NCC1CN(c2ccc(C3CCCCC3)cc2)C(=O)O1)c1ccc(Cl)s1` (stereo not drawn) [Example 131]: 6.07.
As for `O=C(NCC1CN(c2ccc(N3CCC3)c(F)c2)C(=O)O1)c1ccc(Cl)s1` (stereo not drawn) [Example 132], the pIC50 was 6.92.
`O=C(NCC1CN(c2ccc(N3CCC(O)C3)c(F)c2)C(=O)O1)c1ccc(Cl)s1` (stereo not drawn) [Example 133] had a pIC50 of 7.21.
Still for that read-out and setting: the same measure for `O=C(NCC1CN(c2ccc(N3CCCC(O)C3)c(F)c2)C(=O)O1)c1ccc(Cl)s1` (stereo not drawn) [Example 134]: 6.32; for `CC(C)(C)OC(=O)NC1CCCN(c2ccc(N3CC(CNC(=O)c4ccc(Cl)s4)OC3=O)cc2F)C1` (stereo not drawn) [Example 135]: 5.96; for `CC1(N)CCN(c2ccc(N3CC(CNC(=O)c4ccc(Cl)s4)OC3=O)cc2F)CC1` (stereo not drawn) [Example 136]: 5.92.
`NC1CCCN(c2ccc(N3CC(CNC(=O)c4ccc(Cl)s4)OC3=O)cc2F)C1` (stereo not drawn) [Example 137]: the pIC50 is 7.36.
Consider `O=C(NCC1CN(c2ccc(NCCCO)cc2)C(=O)O1)c1ccc(Cl)s1` (stereo not drawn) [Example 138], for which the pIC50 was 6.38.
On the same count and under the same terms, for `O=C(NCC1CN(c2ccc(-n3cccc3)cc2)C(=O)O1)c1ccc(Cl)s1` (stereo not drawn) [Example 139] the value was 5.77.

Still in this assay, the particulars now being: factor Xa inhibition.
`O=C(NC[C@H]1CN(c2ccc(N3CC[S+]([O-])CC3)c(F)c2)C(=O)O1)c1ccc(Cl)s1` [Example 14, 5-Chloro-N-({(5S)-3-[3-fluoro-4-(1-oxo-1[lambda]^4,4-thiazinan-4-yl)phenyl]-2-oxo-1,3-oxazolidin-5-yl}methyl)-2-thiophenecarboxamide] had a pIC50 of 5.96.
On the same count and under the same terms, for `O=C(NC[C@H]1CN(c2ccc(N3CCS(=O)(=O)CC3)c(F)c2)C(=O)O1)c1ccc(Cl)s1` [Example 15, 5-chloro-N-({(5S)-3-[4-(1,1-dioxo-1[lambda]^6,4-thiazinan-4-yl)-3-fluorophenyl]-2-oxo-1,3-oxazolidin-5-yl}methyl)-2-thiophenecarboxamide] the value was 6.68; for `O=C(NC[C@H]1CN(c2ccc(N3CCCC3)cc2)C(=O)O1)c1ccc(Cl)s1` [Example 18, 5-Chloro-N-({(5S)-2-oxo-3-[4-(1-pyrrolidinyl)phenyl]-1,3-oxazolidin-5-yl}methyl)-2-thiophenecarboxamide], 7.40.
Still for that read-out and setting: for `CCN(CC)c1ccc(N2C[C@H](CNC(=O)c3ccc(Cl)s3)OC2=O)cc1` [Example 19, 5-Chloro-N-({(5S)-2-oxo-3-[4-(diethylamino)phenyl]-1,3-oxazolidin-5-yl}methyl)-2-thiophenecarboxamide] the value was 6.57; for `O=C(NC[C@H]1CN(c2ccc(N3CCOCC3)c(Cl)c2)C(=O)O1)c1ccc(Cl)s1` [Example 37, 5-Chloro-N-{[(5S)-3-(3-chloro-4-morpholinophenyl)-2-oxo-1,3-oxazolidin-5-yl]methyl}-2-thiophenecarboxamide], 7.48.
Still for that read-out and setting: the same measure for `O=C(NC[C@H]1CN(c2ccc(S(=O)(=O)N3CCOCC3)cc2)C(=O)O1)c1ccc(Cl)s1` [Example 38, 5-Chloro-N-({(5S)-3-[4-(4-morpholinylsulfonyl)phenyl]-2-oxo-1,3-oxazolidin-5-yl}methyl)-2-thiophenecarboxamide]: 5.70.
Take `O=C(NC[C@H]1CN(c2ccc(S(=O)(=O)N3CCC3)cc2)C(=O)O1)c1ccc(Cl)s1` [Example 39, 5-Chloro-N-({(5S)-3-[4-(1-azetidinylsulfonyl)phenyl]-2-oxo-1,3-oxazolidin-5-yl}methyl)-2-thiophenecarboxamide]: the pIC50 was 6.08.
On the same count and under the same terms, for `CN(C)S(=O)(=O)c1ccc(N2C[C@H](CNC(=O)c3ccc(Cl)s3)OC2=O)cc1` [Example 40, 5-Chloro-N-[((5S)-3-{4-[(dimethylamino)sulfonyl]phenyl}-2-oxo-1,3-oxazolidin-5-yl)methyl]-2-thiophenecarboxamide] the value was 7.05.
Regarding `O=C(NCC1CN(c2ccc(N3CCCC3=O)cc2)C(=O)O1)c1cccs1` (stereo not drawn) [Example 41, N-({2-oxo-3-[4-(2-oxo-1-pyrrolidinyl)phenyl]-1,3-oxazolidin-5-yl}methyl)-2-thiophenecarboxamide], the pIC50 is 5.89.
The same measure, in the same setting: the same measure for `Cc1ccc(C(=O)NCC2CN(c3ccc(N4CCCC4=O)cc3)C(=O)O2)s1` (stereo not drawn) [Example 42, 5-Methyl-N-({2-oxo-3-[4-(2-oxo-1-pyrrolidinyl)phenyl]-1,3-oxazolidin-5-yl}methyl)-2-thiophenecarboxamide]: 6.80.
Still for that read-out and setting: for `O=C(NCC1CN(c2ccc(N3CCCC3=O)cc2)C(=O)O1)c1ccc(Br)s1` (stereo not drawn) [Example 43, 5-Bromo-N-({2-oxo-3-[4-(2-oxo-1-pyrrolidinyl)phenyl]-1,3-oxazolidin-5-yl}methyl)-2-thiophenecarboxamide] the value was 7.85; for `O=C(NCC1CN(c2ccccc2)C(=O)O1)c1ccc(Cl)s1` (stereo not drawn) [Example 96, 5-Chloro-N-[(2-oxo-3-phenyl-1,3-oxazolidin-5-yl)methyl]-2-thiophenecarboxamide], 5.70.
The same measure, in the same setting: for `CC(=O)N(c1ccc(N2CC(CNC(=O)c3ccc(Cl)s3)OC2=O)cc1)C1CC1` (stereo not drawn) [Example 98, N-[(3-{4-[Acetyl(cyclopropyl)amino]phenyl}-2-oxo-1,3-oxazolidin-5-yl)methyl]-5-chloro-2-thiophenecarboxanmide] the value was 7.30; for `NCc1ccc(N2CC(CNC(=O)c3ccc(Cl)s3)OC2=O)cc1` (stereo not drawn) [Example 148, N-({3-[4-(Aminomethyl)phenyl]-2-oxo-1,3-oxazolidin-5-yl}methyl)-5-chloro-2-thiophenecarboxamide], 5.66; for `Nc1ccc(N2CC(CNC(=O)c3ccc(Cl)s3)OC2=O)cc1` (stereo not drawn) [Example 149, N-{[3-(4-Aminophenyl)-2-oxo-1,3-oxazolidin-5-yl]methyl}-5-chloro-2-thiophenecarboxamide], 5.70.

Staying with this assay, now noted: table of Examples 48-58.
For the compound `CC1Oc2cc(N3C[C@H](CNC(=O)c4ccc(Cl)s4)OC3=O)ccc2N(C)C1=O` (stereo partly drawn) [Example 50], the pIC50 was 5.94.
`CN1C(=O)COc2cc(N3C[C@H](CNC(=O)c4ccc(Cl)s4)OC3=O)ccc21` [Example 51] showed a pIC50 of 5.92.
Same read-out and setting: for `O=C(NC[C@H]1CN(c2ccc3c(c2)OCc2nccn2-3)C(=O)O1)c1ccc(Cl)s1` [Example 53] the value was 6.13; for `N#Cc1cc(N2C[C@H](CNC(=O)c3ccc(Cl)s3)OC2=O)ccc1N1CCCC1` [Example 54], 6.89.
On the same count and under the same terms, for `O=C(NC[C@H]1CN(c2ccc(N3CCOC3=O)cc2)C(=O)O1)c1ccc(Cl)s1` [Example 55] the value was 7.40; for `O=C(NC[C@H]1CN(c2ccc(N3CCCC3=O)cc2)C(=O)O1)c1ccc(Br)s1` [Example 56], 8.40; for `Cc1ccc(C(=O)NC[C@H]2CN(c3ccc(N4CCCC4=O)cc3)C(=O)O2)s1` [Example 57], 6.24.
